Laboratory results as given in patent publication US20150314021A1, “STERILIZATION METHOD COMPRISING STERILIZATION FLUID AND ULTRASONICALLY GERERATED CAVITATION MICROBUBBLES” (DEVIS TECHNOLOGIES INC., priority 2012, published 2015).
Where two headings read alike, the source gives them in different places.

Test system: Bacillus atrophaeus and Bacillus stearothermophilus
Details: H2O2 alone (no ultrasound)

## OO [Hydrogen Peroxide, hydrogen peroxide]
1 min exposure
  reduction in cell count: 50.02%
5 min exposure
  reduction in cell count: 50.12%
